Assay results from patent US11000033B2, “Ketone or oxime compound, and herbicide” (NISSAN CHEMICAL CORPORATION, priority 2014, dated 2021).

Assays:
Assay type in all cases: in vivo
Galium spurium = test: Test Example 4: herbicidal effect by soil treatment (symbol Q); settings: application herbicide amount 320 g/ha
Procedure, shortened: (§1)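 Seeds were sown in sterilized diluvial soil, covered with about 1.5 cm of soil, and the soil surface was sprayed with a water-diluted emulsion of the compound at a predetermined rate. Plants grew in a greenhouse at 25° C. to 30° C.; effects were scored visually 3 weeks after application.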

Stellaria media = test: Test Example 4: herbicidal effect by soil treatment (symbol P); settings: application herbicide amount 320 g/ha
Procedure, shortened: as §1

Veronica persica = test: Test Example 5: herbicidal effect by foliage application, plastic box (symbol R); settings: 320 g/ha, 3 weeks after application
Procedure, shortened: (§2)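 Visual herbicidal score, taken three weeks post-application, of seedlings sprayed on the foliage with water-diluted emulsion at a predetermined amount; plants were 14 days old, greenhouse-raised at 25° C. to 30° C.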

Alopecurus myosuroides [1] = test: Test Example 4: herbicidal effect by soil treatment (symbol J); settings: application herbicide amount 320 g/ha
Procedure, shortened: as §1

corn [2] = test: Test Example 4: effect on crop by soil treatment (symbol c); settings: application herbicide amount 320 g/ha
Procedure, shortened: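 Greenhouse culture at 25° C. to 30° C. followed sowing of seed in spots on sterilized diluvial soil with a soil cover close to 1.5 cm thick.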

Alopecurus myosuroides [3] = test: Test Example 5: herbicidal effect by foliage application, plastic box (symbol J); settings: 320 g/ha, 3 weeks after application
Procedure, shortened: as §2

corn [4] = test: Test Example 5: effect on crop by foliage application, plastic box (symbol c); settings: 320 g/ha, 3 weeks after application
Procedure, shortened: (§3)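 Foliage-application test plants come from spot sowing in sterilized diluvial soil under a soil layer of about 1.5 cm, grown at 25° C. to 30° C. in a greenhouse.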

transplanted rice plant = test: Test Example 1: effect on crop, application before weed generation in submerged conditions (symbol a); settings: application herbicide amount 320 g/ha
Procedure, shortened: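 Alluvial soil pots flooded to 4 cm water, sown with Echinochloa oryzacola, Scirpus juncoides and Monochoria vaginalis, then transplanted with 2.5 leaf stage rice seedlings; pre-emergence application. Greenhouse 25° C. to 30° C.; scored 0–5 by herbicidal ratio 3 weeks after application.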

Chenopodium album [5] = test: Test Example 5: herbicidal effect by foliage application, plastic box (symbol O); settings: 320 g/ha, 3 weeks after application
Procedure, shortened: as §2

[6] = system: Echinochloa crus-galli var. crus-galli; test: Test Example 3: herbicidal effect by foliage application, Wagner pot (symbol H); settings: application herbicide amount 320 g/ha
Procedure, shortened: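 In a shallow-flooded alluvial soil system held at 25–30 °C, plants including rice grew for 14 days and were then sprayed over the foliage with emulsion diluted to a fixed herbicide amount. Visual rating followed at 3 weeks.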

Lolium multiflorum Lam. = test: Test Example 5: herbicidal effect by foliage application, plastic box (symbol K); settings: 320 g/ha, 3 weeks after application
Procedure, shortened: as §2

soybean = test: Test Example 5: effect on crop by foliage application, plastic box (symbol d); settings: 320 g/ha, 3 weeks after application
Procedure, shortened: as §3

Abutilon theophrasti = test: Test Example 4: herbicidal effect by soil treatment (symbol M); settings: application herbicide amount 320 g/ha
Procedure, shortened: as §1

[7] = system: Echinochloa crus-galli var. crus-galli; test: Test Example 5: herbicidal effect by foliage application, plastic box (symbol H); settings: 320 g/ha, 3 weeks after application
Procedure, shortened: as §2

Apera spica-venti = test: Test Example 5: herbicidal effect by foliage application, plastic box (symbol L); settings: 320 g/ha, 3 weeks after application
Procedure, shortened: as §2

Amaranthus retroflexus = test: Test Example 5: herbicidal effect by foliage application, plastic box (symbol N); settings: 320 g/ha, 3 weeks after application
Procedure, shortened: as §2

Chenopodium album [8] = test: Test Example 4: herbicidal effect by soil treatment (symbol O); settings: application herbicide amount 320 g/ha
Procedure, shortened: as §1

| Compound | Herbicidal effect grade, Q: Galium spurium (Galium spurium) | Herbicidal effect grade, P: Stellaria media (Stellaria media) | R: Veronica persica, herbicidal effect (criteria of Test Example 1) (Veronica persica) | Herbicidal effect grade, J: Alopecurus myosuroides (Alopecurus myosuroides [1]) | Effect on crop grade, c: corn (corn [2]) | J: Alopecurus myosuroides, herbicidal effect (criteria of Test Example 1) (Alopecurus myosuroides [3]) | c: corn, effect on crop (criteria of Test Example 1) (corn [4]) | Effect grade on crop, a: transplanted rice plant (transplanted rice plant) | O: Chenopodium album, herbicidal effect (criteria of Test Example 1) (Chenopodium album [5]) | herbicidal effect on H (Echinochloa crus-galli var. crus-galli), grade 0-5 [6] | K: Lolium multiflorum Lam., herbicidal effect (criteria of Test Example 1) (Lolium multiflorum Lam.) | d: soybean, effect on crop (criteria of Test Example 1) (soybean) | Herbicidal effect grade, M: Abutilon theophrasti (Abutilon theophrasti) | H: Echinochloa crus-galli var. crus-galli, herbicidal effect (criteria of Test Example 1) [7] | L: Apera spica-venti, herbicidal effect (criteria of Test Example 1) (Apera spica-venti) | N: Amaranthus retroflexus, herbicidal effect (criteria of Test Example 1) (Amaranthus retroflexus) | Herbicidal effect grade, O: Chenopodium album (Chenopodium album [8]) |
| --- | --- | --- | --- | --- | --- | --- | --- | --- | --- | --- | --- | --- | --- | --- | --- | --- | --- |
| CON=C(C)CC1CC(OC(=O)N2CCCC2)=C(c2c(C)cc(C)cc2OC)C1=O (centres unmarked) [6-110] | 0 (Herbicidal ratio of 5% or lower (almost no effect)) | 0 (Herbicidal ratio of 5% or lower (almost no effect)) | 2 (Herbicidal ratio of 20% or higher and lower than 40%) | 3 (Herbicidal ratio of 40% or higher and lower than 70%) | 0 (Herbicidal ratio of 5% or lower (almost no effect)) | 5 (Herbicidal ratio of 90% or more (almost completely withered)) | 5 (Herbicidal ratio of 90% or more (almost completely withered)) | 5 (Herbicidal ratio of 90% or more (almost completely withered)) | 0 (Herbicidal ratio of 5% or lower (almost no effect)) | 5 (Herbicidal ratio of 90% or more (almost completely withered)) | 5 (Herbicidal ratio of 90% or more (almost completely withered)) | 2 (Herbicidal ratio of 20% or higher and lower than 40%) | 0 (Herbicidal ratio of 5% or lower (almost no effect)) | 5 (Herbicidal ratio of 90% or more (almost completely withered)) | 5 (Herbicidal ratio of 90% or more (almost completely withered)) | 0 (Herbicidal ratio of 5% or lower (almost no effect)) | 0 (Herbicidal ratio of 5% or lower (almost no effect)) |
| CON=C(C)CC1CC(OC(=O)N2CCCCC2)=C(c2c(C)cc(C)cc2OC)C1=O (centres unmarked) [6-111] | 0 (Herbicidal ratio of 5% or lower (almost no effect)) | 0 (Herbicidal ratio of 5% or lower (almost no effect)) | 2 (Herbicidal ratio of 20% or higher and lower than 40%) | 5 (Herbicidal ratio of 90% or more (almost completely withered)) | 0 (Herbicidal ratio of 5% or lower (almost no effect)) | 5 (Herbicidal ratio of 90% or more (almost completely withered)) | 5 (Herbicidal ratio of 90% or more (almost completely withered)) | 5 (Herbicidal ratio of 90% or more (almost completely withered)) | 0 (Herbicidal ratio of 5% or lower (almost no effect)) | 5 (Herbicidal ratio of 90% or more (almost completely withered)) | 5 (Herbicidal ratio of 90% or more (almost completely withered)) | 1 (Herbicidal ratio of 5% or higher and lower than 20%) | 0 (Herbicidal ratio of 5% or lower (almost no effect)) | 5 (Herbicidal ratio of 90% or more (almost completely withered)) | 5 (Herbicidal ratio of 90% or more (almost completely withered)) | 2 (Herbicidal ratio of 20% or higher and lower than 40%) | 0 (Herbicidal ratio of 5% or lower (almost no effect)) |
| CON=C(C)CC1CC(O)=C(c2c(C)cccc2C)C1=O (centres unmarked) [6-112] | 0 (Herbicidal ratio of 5% or lower (almost no effect)) | 0 (Herbicidal ratio of 5% or lower (almost no effect)) | 1 (Herbicidal ratio of 5% or higher and lower than 20%) | 5 (Herbicidal ratio of 90% or more (almost completely withered)) | 1 (Herbicidal ratio of 5% or higher and lower than 20%) | 5 (Herbicidal ratio of 90% or more (almost completely withered)) | 5 (Herbicidal ratio of 90% or more (almost completely withered)) | 4 (Herbicidal ratio of 70% or higher and lower than 90%) | 0 (Herbicidal ratio of 5% or lower (almost no effect)) | 5 (Herbicidal ratio of 90% or more (almost completely withered)) | 5 (Herbicidal ratio of 90% or more (almost completely withered)) | 3 (Herbicidal ratio of 40% or higher and lower than 70%) | 1 (Herbicidal ratio of 5% or higher and lower than 20%) | 5 (Herbicidal ratio of 90% or more (almost completely withered)) | 5 (Herbicidal ratio of 90% or more (almost completely withered)) | 1 (Herbicidal ratio of 5% or higher and lower than 20%) | 0 (Herbicidal ratio of 5% or lower (almost no effect)) |
| CC(=O)CC1CC(O)=C(c2c(C)cc(Br)cc2C)C1=O (centres unmarked) [7-002] | 0 (Herbicidal ratio of 5% or lower (almost no effect)) | 0 (Herbicidal ratio of 5% or lower (almost no effect)) | 0 (Herbicidal ratio of 5% or lower (almost no effect)) | 3 (Herbicidal ratio of 40% or higher and lower than 70%) | 0 (Herbicidal ratio of 5% or lower (almost no effect)) | 4 (Herbicidal ratio of 70% or higher and lower than 90%) | 3 (Herbicidal ratio of 40% or higher and lower than 70%) | 2 (Herbicidal ratio of 20% or higher and lower than 40%) | 0 (Herbicidal ratio of 5% or lower (almost no effect)) | 5 (Herbicidal ratio of 90% or more (almost completely withered)) | 5 (Herbicidal ratio of 90% or more (almost completely withered)) | 0 (Herbicidal ratio of 5% or lower (almost no effect)) | 0 (Herbicidal ratio of 5% or lower (almost no effect)) | 5 (Herbicidal ratio of 90% or more (almost completely withered)) | 3 (Herbicidal ratio of 40% or higher and lower than 70%) | 0 (Herbicidal ratio of 5% or lower (almost no effect)) | 0 (Herbicidal ratio of 5% or lower (almost no effect)) |
